US20150105252A1, “SUBSTITUTED PYRAZOLES AS HERBICIDES” (E I DU PONT DE NEMOURS AND COMPANY, priority 2013, published 2015)

Columns and labels:
lambsquarters [1] = assay: Test C preemergence; format: in vivo, Chenopodium album; conditions: for Lambsquarters plant response rating: scale 0 to 100 (0 no effect, 100 complete control)
Outline: (§1)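 Herbicidal effect is expressed as percent visual control (0–100) judged against untreated plants 13 to 15 days after treatment in the greenhouse. Preemergence pots contained seeds in a soil–sand blend; postemergence plants, 2–18 cm tall, grew in peat-based planting medium.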

blackgrass = assay: Test C postemergence; format: in vivo, Alopecurus myosuroides
Outline: as §1

ryegrass, Italian = assay: Test C postemergence; format: in vivo, Lolium multiflorum
Outline: as §1

wheat = assay: Test C postemergence; format: in vivo, Triticum aestivum
Outline: as §1

galium = assay: Test C postemergence; format: in vivo, Galium aparine
Outline: as §1

corn = assay: Test C postemergence; format: in vivo, Zea mays
Outline: as §1

foxtail, giant = assay: Test C postemergence; format: in vivo, Setaria faberii
Outline: as §1

johnsongrass = assay: Test C postemergence; format: in vivo, Sorghum halepense
Outline: as §1

lambsquarters [2] = assay: Test C postemergence; format: in vivo, Chenopodium album
Outline: as §1

morningglory = assay: Test C postemergence; format: in vivo, Ipomoea coccinea
Outline: as §1

nutsedge, yellow = assay: Test C postemergence; format: in vivo, Cyperus esculentus
Outline: as §1

pigweed = assay: Test C postemergence; format: in vivo, Amaranthus retroflexus
Outline: as §1

soybean = assay: Test C postemergence; format: in vivo, Glycine max
Outline: as §1

oilseed rape = assay: Test C postemergence; format: in vivo, Brassica napus
Outline: as §1

waterhemp = assay: Test C postemergence; format: in vivo, Amaranthus rudis
Outline: as §1

kochia = assay: Test C postemergence; format: in vivo, Kochia scoparia
Outline: as §1

velvetleaf = assay: Test C postemergence; format: in vivo, Abutilon theophrasti
Outline: as §1

chickweed = assay: Test C postemergence; format: in vivo, Stellaria media
Outline: as §1

[3] = Postemergence, 31 g ai/ha, visually evaluated after 13 to 15 days
[4] = postemergence, 62 g ai/ha, scale 0 to 100
[5] = postemergence, 250 g ai/ha, scale 0 to 100 (0 no effect, 100 complete control)
[6] = postemergence, 125 g ai/ha, scale 0 to 100, 0 no effect, 100 complete control

CCNC(=O)c1cc(CC)n(Cc2ccnc(OC(F)F)c2)n1 [Compound 130]
60: Plant response rating (scale of 0 to 100 where 0 is no effect and 100 is complete control), Galium (galium; [3]) | Plant response rating, Oilseed Rape (oilseed rape; [5]) | Plant response rating, Velvetleaf (velvetleaf; [5])
5: Plant response rating (scale of 0 to 100 where 0 is no effect and 100 is complete control), Blackgrass (blackgrass; [3]) | Blackgrass plant response rating (blackgrass; [4]) | Plant response rating (scale of 0 to 100 where 0 is no effect and 100 is complete control), Ryegrass, Italian (ryegrass, Italian; [3]) | Ryegrass, Italian plant response rating (ryegrass, Italian; [4]) | Plant response rating, Wheat (wheat; [5]) | Plant response rating, Wheat (wheat; [6]) | Plant response rating (scale of 0 to 100 where 0 is no effect and 100 is complete control), Corn (corn; [3]) | Corn plant response rating (corn; [4]) | Plant response rating, Corn (corn; [6]) | Johnsongrass plant response rating (johnsongrass; [4]) | Plant response rating, Johnsongrass (johnsongrass; [6]) | Nutsedge, Yellow plant response rating (nutsedge, yellow; [4]) | Plant response rating, Nutsedge, Yellow (nutsedge, yellow; [6]) | Plant response rating (scale of 0 to 100 where 0 is no effect and 100 is complete control), Velvetleaf (velvetleaf; [3])
40: Plant response rating (scale of 0 to 100 where 0 is no effect and 100 is complete control), Foxtail, Giant (foxtail, giant; [3]) | Oilseed Rape plant response rating (oilseed rape; [4])
65: Galium plant response rating (galium; [4]) | Plant response rating, Galium (galium; [6]) | Plant response rating, Lambsquarters (lambsquarters [2]; [6]) | Pigweed plant response rating (pigweed; [4]) | Plant response rating, Soybean (soybean; [6]) | Plant response rating (scale of 0 to 100 where 0 is no effect and 100 is complete control), Kochia (kochia; [3]) | Plant response rating (scale of 0 to 100 where 0 is no effect and 100 is complete control), Chickweed (chickweed; [3])
100: Lambsquarters plant response rating (lambsquarters [1]; preemergence, 62 g ai/ha, 13 to 15 days) | Plant response rating, Lambsquarters (lambsquarters [1]; preemergence, 125 g ai/ha, 13 to 15 days, scale 0 to 100, 0 = no effect, 100 = complete control)
0: Plant response rating (scale of 0 to 100 where 0 is no effect and 100 is complete control), Wheat (wheat; [3]) | Wheat plant response rating (wheat; [4]) | Plant response rating (scale of 0 to 100 where 0 is no effect and 100 is complete control), Johnsongrass (johnsongrass; [3]) | Plant response rating (scale of 0 to 100 where 0 is no effect and 100 is complete control), Nutsedge, Yellow (nutsedge, yellow; [3])
55: Plant response rating, Foxtail, Giant (foxtail, giant; [5]) | Plant response rating, Oilseed Rape (oilseed rape; [6]) | Waterhemp plant response rating (waterhemp; [4])
30: Lambsquarters plant response rating (lambsquarters [2]; [4]) | Plant response rating (scale of 0 to 100 where 0 is no effect and 100 is complete control), Pigweed (pigweed; [3]) | Plant response rating (scale of 0 to 100 where 0 is no effect and 100 is complete control), Waterhemp (waterhemp; [3])
90: Plant response rating, Kochia (kochia; [5]) | Plant response rating, Kochia (kochia; [6])
85: Lambsquarters plant response rating (lambsquarters [1]; preemergence, 31 g ai/ha, visual rating, 13 to 15 days) | Plant response rating, Morningglory (morningglory; [6]) | Plant response rating, Pigweed (pigweed; [5])
70: Plant response rating (scale of 0 to 100 where 0 is no effect and 100 is complete control), Soybean (soybean; [3]) | Plant response rating, Waterhemp (waterhemp; [6]) | Chickweed plant response rating (chickweed; [4])
50: Plant response rating, Pigweed (pigweed; [6]) | Plant response rating, Velvetleaf (velvetleaf; [6])
35: Plant response rating (scale of 0 to 100 where 0 is no effect and 100 is complete control), Morningglory (morningglory; [3]) | Plant response rating (scale of 0 to 100 where 0 is no effect and 100 is complete control), Oilseed Rape (oilseed rape; [3])
75: Plant response rating, Galium (galium; [5]) | Plant response rating, Lambsquarters (lambsquarters [2]; [5]) | Morningglory plant response rating (morningglory; [4]) | Kochia plant response rating (kochia; [4]) | Plant response rating, Chickweed (chickweed; [5]) | Plant response rating, Chickweed (chickweed; [6])
80: Soybean plant response rating (soybean; [4]) | Plant response rating, Waterhemp (waterhemp; [5])
98: Plant response rating (scale of 0 to 100), Lambsquarters (lambsquarters [1]; Preemergence, 250 g ai/ha) | Plant response rating, Morningglory (morningglory; [5]) | Plant response rating, Soybean (soybean; [5])
20: Plant response rating, Foxtail, Giant (foxtail, giant; [6])
10: Plant response rating, Blackgrass (blackgrass; [5]) | Plant response rating, Blackgrass (blackgrass; [6]) | Plant response rating, Ryegrass, Italian (ryegrass, Italian; [6]) | Plant response rating, Johnsongrass (johnsongrass; [5]) | Plant response rating, Nutsedge, Yellow (nutsedge, yellow; [5]) | Velvetleaf plant response rating (velvetleaf; [4])
15: Plant response rating, Ryegrass, Italian (ryegrass, Italian; [5]) | Foxtail, Giant plant response rating (foxtail, giant; [4])
25: Plant response rating, Corn (corn; [5]) | Plant response rating (scale of 0 to 100 where 0 is no effect and 100 is complete control), Lambsquarters (lambsquarters [2]; [3])
